Each structure is given as a SMILES string.

The record followed here is BindingDB's records for doi:10.7270/Q2W094D4 (Burnham Center For Chemical Genomics, 2011).

The assay has as its target Hexokinase HKDC1 [W721R] (Homo sapiens, UniProt Q2TB90, W721R). Description: inhibition of HKDC1 glucose phosphorylation – biochemical, W721R variant, dose response (AID 504729).

Chain of Hexokinase HKDC1 [W721R] (Q2TB90 whole entry W721R): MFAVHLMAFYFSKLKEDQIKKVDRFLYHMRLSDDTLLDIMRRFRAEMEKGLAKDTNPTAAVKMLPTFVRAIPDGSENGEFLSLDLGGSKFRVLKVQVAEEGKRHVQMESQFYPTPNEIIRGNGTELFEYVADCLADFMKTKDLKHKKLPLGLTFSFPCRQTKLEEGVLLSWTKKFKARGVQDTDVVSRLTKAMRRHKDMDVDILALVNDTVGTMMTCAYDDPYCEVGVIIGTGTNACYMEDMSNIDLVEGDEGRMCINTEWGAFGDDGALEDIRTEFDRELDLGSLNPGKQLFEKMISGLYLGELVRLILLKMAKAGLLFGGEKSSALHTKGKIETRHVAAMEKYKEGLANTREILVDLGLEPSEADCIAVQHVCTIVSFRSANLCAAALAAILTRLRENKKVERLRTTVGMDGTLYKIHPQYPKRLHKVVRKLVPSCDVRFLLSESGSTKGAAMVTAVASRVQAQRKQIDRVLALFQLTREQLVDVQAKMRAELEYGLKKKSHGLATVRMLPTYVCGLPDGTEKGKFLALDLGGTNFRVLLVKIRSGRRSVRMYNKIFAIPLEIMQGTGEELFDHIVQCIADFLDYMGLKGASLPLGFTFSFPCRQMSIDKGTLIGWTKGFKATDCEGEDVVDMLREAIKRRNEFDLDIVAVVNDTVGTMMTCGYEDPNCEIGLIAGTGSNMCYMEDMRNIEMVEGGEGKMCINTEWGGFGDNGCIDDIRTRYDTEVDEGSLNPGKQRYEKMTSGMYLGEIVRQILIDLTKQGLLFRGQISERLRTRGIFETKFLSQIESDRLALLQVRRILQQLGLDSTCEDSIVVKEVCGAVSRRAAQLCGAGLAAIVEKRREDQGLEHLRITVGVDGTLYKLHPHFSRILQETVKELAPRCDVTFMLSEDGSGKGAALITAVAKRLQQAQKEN

In the case of `N#CC(C(=O)CCl)c1nc2c(s1)CCc1ccccc1-2` (stereo not drawn) [MLS001171530], the IC50 (usually the concentration at which inhibition is half-maximal) was 17.4 µM.
Then `CC(Nc1cc(O)c2cccnc2c1O)C(=O)c1ccccc1` (stereo not drawn), with 18.5 µM.
Then `Cc1cccc2c1=NC(=O)C=2NNC(=O)c1ccc(NS(=O)(=O)c2cccs2)cc1` [SMR001246714], with 15.5 µM; and `COC1=CC(/C=C(\C#N)c2nc3ccc(C)cc3[nH]2)C=C([N+](=O)[O-])C1=O` (stereo not drawn) [(2Z,3E)-3-(3-methoxy-5-nitro-4-oxocyclohexa-2,5-dien-1-ylidene)-2-(5-methyl-1,3-dihydrobenzimidazol-2-ylidene)propanenitrile], with 16.1 µM.
The figure for `Cc1ccc(Nc2c3[nH]cccc-3c(=O)n2-c2ccccc2C)cc1C` [SMR000028201] is 11.6 µM; for `Oc1c(Cl)c(N=CCc2ccccc2)c(O)c2ccccc12` [MLS002608293] it is 7.92 µM.
With `C=c1c(NC(C)=O)c(O)c2nc3n(c2c1O)CCC=3OC(=O)COC` [SMR001565176], the IC50 is 2.18 µM.
The figure for `Cc1ccc(/N=C/C2=CC(Cc3ccccc3Cl)C=C([N+](=O)[O-])C2=O)c(O)c1` (stereo not drawn) is 28.5 µM.
The figure for `Cc1[nH]c2c(=O)c3c(c(=O)c=2[nH]c1C)C1C=CC3CC1` [MLS002701599] is 2.23 µM.
`O=C(/C=C/c1ccco1)NCC(=O)NNC1=c2ccccc2=NC1=O` [MLS001075666]: 25.3 µM corresponded to half-maximal inhibition (IC50).
The figure for `Oc1ccc(CN=Nc2ncc(Br)cn2)c(O)c1` is 1.68 µM.
Then `O=C1C=CC(CN=Nc2ccc([N+](=O)[O-])cn2)C(O)=C1` (stereo not drawn) [SMR001527138], with 6.23 µM.
Then `COc1ccc(Cn2c(O)c3[nH]cccc-3c2=O)cc1`, with 21.5 µM.
